# Laboratory results as given in patent US10377770B2 (Novartis AG, priority 2015, dated 2019).
# Biological target: C-Raf FL (full length CRAF with Y340E and Y341E activating mutations, co-expressed with h14-3-3 zeta) (Homo sapiens (Human), UniProt P04049, Y340E/Y341E)
# Assay: In vitro Raf activity determination, AlphaScreen p-MEK readout, c-Raf (C-Raf FL)
# Format: biochemical
# Details: c-Raf approximately 4 nM, ATP 1 μM, pre-incubation 60 minutes, reaction 1 hour
# How it was run: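 Full-length C-Raf (~4 nM) pre-incubated 60 min at room temperature with compound and kinase-dead biotinylated MEK1 (~10 nM) in Tris pH 7.5, 15 mM MgCl2, BSA, DTT. Reaction started with 1 μM ATP and run 1 h at room temperature. Phospho-MEK detected by AlphaScreen with anti-p-MEK antibody.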
# Chain of C-Raf FL (full length CRAF with Y340E and Y341E activating mutations, co-expressed with h14-3-3 zeta) (P04049 whole entry Y340E/Y341E): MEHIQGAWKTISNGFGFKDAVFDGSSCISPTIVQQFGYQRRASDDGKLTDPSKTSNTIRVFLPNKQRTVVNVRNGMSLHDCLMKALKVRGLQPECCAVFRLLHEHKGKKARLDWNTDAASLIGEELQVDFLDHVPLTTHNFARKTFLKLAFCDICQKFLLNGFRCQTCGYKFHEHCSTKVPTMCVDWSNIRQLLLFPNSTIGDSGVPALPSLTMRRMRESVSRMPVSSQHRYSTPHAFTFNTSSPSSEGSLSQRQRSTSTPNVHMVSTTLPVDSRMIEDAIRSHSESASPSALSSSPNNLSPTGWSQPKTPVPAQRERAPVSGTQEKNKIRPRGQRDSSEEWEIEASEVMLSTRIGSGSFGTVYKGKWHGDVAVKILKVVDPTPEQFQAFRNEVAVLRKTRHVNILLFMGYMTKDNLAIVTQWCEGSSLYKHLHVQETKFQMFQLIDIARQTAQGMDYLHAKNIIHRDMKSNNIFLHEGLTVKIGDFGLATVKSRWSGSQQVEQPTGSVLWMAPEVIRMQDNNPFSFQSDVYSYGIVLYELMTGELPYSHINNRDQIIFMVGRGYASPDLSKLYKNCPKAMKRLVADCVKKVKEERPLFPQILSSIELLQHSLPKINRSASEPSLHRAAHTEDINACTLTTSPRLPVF
# Chain of C-Raf FL (full length CRAF with Y340E and Y341E activating mutations, co-expressed with h14-3-3 zeta) (P63104 whole entry partner): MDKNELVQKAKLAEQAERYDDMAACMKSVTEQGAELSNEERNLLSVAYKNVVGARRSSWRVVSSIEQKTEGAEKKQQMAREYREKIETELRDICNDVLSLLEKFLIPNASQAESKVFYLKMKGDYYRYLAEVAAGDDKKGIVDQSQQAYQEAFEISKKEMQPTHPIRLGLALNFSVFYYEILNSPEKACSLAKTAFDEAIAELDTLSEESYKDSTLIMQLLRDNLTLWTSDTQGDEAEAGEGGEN
row,SMILES,IC50 [nM]
1,"CCN1C(=O)[C@H]2COCC[C@@H]2c2cc(-c3cc(NC(=O)c4cccc(C(F)(F)F)c4F)cnc3C)cnc21 [Example 255, N-(5-((4aR, 10bS)-6-ethyl-5-oxo-2,4,4a,5,6,10b-hexahydro-1H-pyrano[3,4-c][1,8]naphthyridin-9-yl)-6-methylpyridin-3-yl)-2-fluoro-3-(trifluoromethyl) benzamide]",0.8
2,"CCN1C(=O)Cc2nncn2-c2cc(-c3cc(NC(=O)c4ccnc(C(C)(F)F)c4)ccc3C)cnc21 (racemic) [Example 234, 2-(1,1-difluoroethyl)-N-(3-(6-ethyl-5-oxo-5,6-dihydro-4H-pyrido[2,3-b][1,2,4]triazolo[4,3-d][1,4]diazepin-9-yl)-4-methylphenyl)isonicotinamide]",1.3
3,"CCN1C(=O)[C@@H]2COCC[C@H]2c2cc(-c3cc(NC(=O)c4ccnc(C(F)(F)F)c4F)ccc3C)cnc21 [Example 253, N-(3-((4aS, 10bR)-6-ethyl-5-oxo-2,4,4a,5,6,10b-hexahydro-1H-pyrano[3,4-c][1,8]naphthyridin 9-yl)-4-methylphenyl)-3-fluoro-2-(trifluoromethyl) isonicotinamide]",3.2
4,"Cc1ccc(NC(=O)c2cnnc(C(F)(F)F)c2)cc1-c1cnc2c(c1)N1CCOC[C@@H]1CC(=O)N2CCO [Example 324, (S)-N-(3-(7-(2-hydroxyethyl)-6-oxo-2,4,4a,5,6,7-hexahydro-1H-[1,4]oxazino[4,3-d]pyrido[2,3-b][1,4]diazepin-10-yl)-4-methylphenyl)-6-(trifluoromethyl) pyridazine-4-carboxamide]",0.8
5,"Cc1ccc(NC(=O)c2ccnc(C(F)(F)F)c2)cc1-c1cnc2c(c1)C1C3COCC3C1C(=O)N2CCO (stereo not shown) [Example 281, N-(3-(5-(2-hydroxyethyl)-6-oxo-5,6,6a,6b,7,9,9a,9b-octahydrofuro[3′,4′: 3,4]cyclobuta[1,2-c][1,8]naphthyridin-2-yl)--4-methylphenyl)-2-(trifluoromethyl) isonicotinamide]",0.2
6,CCN1C[C@@H]2COCCN2c2cc(-c3cc(NC(=O)c4ccnc(C(F)(F)F)c4F)ccc3C)cnc2C1=O [Example 503],0.1
7,"Cc1ncc(NC(=O)c2cccc(C(F)(F)F)c2)cc1-c1ccc2c(c1)N1CCOCC1C(CS(C)(=O)=O)C2 (racemic) [Example 364, (rac)-N-(6-methyl-5-(5-((methylsulfonyl)methyl)-1,2,4,4a,5,6-hexahydro-[1,4]oxazino[4,3-a]quinolin-9-yl)pyridin-3-yl)-3-(trifluoromethyl)benzamide]",0.8
8,"Cc1ccc(NC(=O)c2ccnc(C(C)(F)F)c2)cc1-c1ccc2c(c1)N1CCOC[C@@H]1[C@@](F)(CO)C2 [Example 370, 2-(1,1-difluoroethyl)-N-(3-((4aR,5R)-5-fluoro-5-(hydroxymethyl)-1,2,4,4a,5,6-hexahydro-[1,4]oxazino[4,3-a]quinolin-9-yl)-4-methylphenyl)isonicotinamide]",0.1
9,"Cc1ccc(NC(=O)c2ccnc(C(F)(F)F)c2)cc1-c1cc2c(cc1F)C[C@](F)(CO)[C@H]1COCCN21 [Example 480, N-(3-((4aR,5R)-5,8-difluoro-5-(hydroxymethyl)-1,2,4,4a,5,6-hexahydro-[1,4]oxazino[4,3-a]quinolin-9-yl)-4-methylphenyl)-2-(trifluoromethyl) isonicotinamide]",0.2
10,"Cc1ncc(NC(=O)c2ccnc(C(C)(F)F)c2)cc1-c1ccc2c(c1)N1CCOCC1C(F)(CO)C2 (racemic) [Example 79, (rac)-2-(1,1-difluoroethyl)-N-(5-(5-fluoro-5-(hydroxymethyl)-1,2,4,4a,5,6-hexahydro-[1,4]oxazino[4,3-a]quinolin-9-yl)-6-methylpyridin-3-yl)isonicotinamide]",0.038
11,"Cc1ccc(NC(=O)c2cnnc(C(F)(F)F)c2)cc1-c1cnc2c(c1)N1CCOC[C@H]1CC(=O)N2CCO [Example 323, (R)-N-(3-(7-(2-hydroxyethyl)-6-oxo-2,4,4a,5,6,7-hexahydro-1H-[1,4]oxazino[4,3-d]pyrido[2,3-b][1,4]diazepin-10-yl)-4-methylphenyl)-6-(trifluoromethyl) pyridazine-4-carboxamide]",0.2
12,"CCN1C(=O)[C@H]2[C@@H]3COC[C@@H]3[C@H]2c2cc(-c3cc(NC(=O)c4cccc(C(F)(F)F)c4)cnc3C)cnc21 [Example 275, N-(5-((6aR, 6bR, 9aR, 9bR)-5-ethyl-6-oxo-5,6,6a,6b,7,9,9a,9b-octahydrofuro[3′,4′: 3,4]cyclobuta[1,2-c][1,8]naphthyridin-2-yl)-6-methylpyridin-3-yl)-3-(trifluoromethyl) benzamide]",0.8
13,"Cc1ccc(NC(=O)c2ccnc(C(C)(F)F)c2)cc1-c1cnc2c(c1)C1CCOCC1OC(=O)N2CCO (stereo not drawn) [Example 332, 2-(1,1-difluoroethyl)-N-(3-((4,11b-cis)-7-(2-hydroxyethyl)-6-oxo-2,4,4a,6,7,11b-hexahydro-1H-pyrano[4,3-f]pyrido[2,3-d][1,3]oxazepin-10-yl)-4-methylphenyl) isonicotinamide]",2.1
14,"CCN1c2ncc(-c3cc(NC(=O)c4ccnc(C(F)(F)F)c4)ccc3C)cc2[C@@H]2CCOC[C@H]2C12CC2 [Example 361, N-(3-((4a′R,10b′R)-6′-ethyl-1′,2′,4′,4a′,6′,10b′-hexahydrospiro[cyclopropane-1,5′-pyrano[3,4-c][1,8]naphthyridin]-9′-yl)-4-methylphenyl)-2-(trifluoromethyl)isonicotinamide]",0.9
15,"Cc1ncc(NC(=O)c2cccc(C(F)(F)F)c2)cc1-c1cnc2c(c1)[C@@H]1CCOC[C@H]1C(=O)N2CC(F)F [Example 266, N-(5-((4aS, 10bR)-6-(2,2-difluoroethyl)-5-oxo-2,4,4a,5,6,10b-hexahydro-1H-pyrano[3,4-c][1,8]naphthyridin-9-yl)-6-methylpyridin-3-yl)-3-(trifluoromethyl) benzamide]",0.3
16,"Cc1ccc(NC(=O)c2cc(C(F)(F)F)ccn2)cc1-c1cnc2c(c1)N1CCOCC1C(CO)(CO)C2 (racemic) [Example 159, rac-N-(3-(5,5-bis(hydroxymethyl)-1,2,4,4a,5,6-hexahydro-[1,4]oxazino[4,3-a][1,5]naphthyridin-9-yl)-4-methylphenyl)-4-(trifluoromethyl)picolinamide]",0.0068
17,"Cc1ccc(NC(=O)c2cncc(C(F)(F)F)c2)cc1-c1ccc2c(c1)N1CCOC[C@H]1[C@](F)(CO)C2 [Example 387, N-(3-((4aS,5S)-5-fluoro-5-(hydroxymethyl)-1,2,4,4a,5,6-hexahydro-[1,4]oxazino[4,3-a]quinolin-9-yl)-4-methylphenyl)-5-(trifluoromethyl)nicotinamide]",0.3
18,"Cc1ccc(NC(=O)c2ccnc(C(F)(F)F)c2)cc1-c1cnc2c(c1)[C@@H]1CCOC[C@H]1C(=O)N2C(C)C [Example 261, N-(3-((4aS, 10bR)-6-isopropyl-5-oxo-2,4,4a,5,6,10b-hexahydro-1H-pyrano[3,4-c][1,8]naphthyridin-9-yl)-4-methylphenyl)-2 (trifluoromethyl) isonicotinamide]",0.2
19,"Cc1ccc(NC(=O)c2ccnc(C(C)(F)F)c2)cc1-c1ccc2c(c1)N1CCOC[C@H]1[C@](F)(CO)C2 [Example 80, 2-(1,1-difluoroethyl)-N-(3-((4aS,5S)-5-fluoro-5-(hydroxymethyl)-1,2,4,4a,5,6-hexahydro-[1,4]oxazino[4,3-a]quinolin-9-yl)-4-methylphenyl)isonicotinamide]",0.42
